Consider 16 compounds from ChEMBL document CHEMBL1159132, “A small library of peptidomimetics to systematically vary and test the effects of X1 constraints” (Bioorg Med Chem Lett, 1996).

Usually inhibition stands for the change of the read-out against control, counted positive when it falls.

Several values for one entry are separate records, joined by “and”; a condition that tells them apart may be missing. Equal values may be shown once.

This assay can be described thus: Inhibition of radiolabeled neuropeptide FF binding to neuropeptide FF receptors in rat spinal cord. Set-up: concentration or dose not given beside the values. The note with it: concentration not given here.

Consider `CC(C)[C@H]1C[C@@]1(NC(=O)[C@H](Cc1ccccc1)NC(=O)[C@@H](C)NC(=O)CNC(=O)[C@@H](N)Cc1ccc(O)cc1)C(=O)N[C@@H](CCCN=C(N)N)C(=O)N[C@@H](Cc1ccccc1)C(N)=O`, for which the inhibition was 22% and 34% and 43%.

On to `CC(C)[C@H]1CC1(NC(=O)[C@H](Cc1ccccc1)NC(=O)[C@@H](C)NC(=O)[C@H](C)NC(=O)[C@@H](N)Cc1ccc(O)cc1)C(=O)N[C@@H](CCCN=C(N)N)C(=O)N[C@@H](Cc1ccccc1)C(N)=O` (single isomer, unassigned; form 1), for which the inhibition was determined as 32%.

Regarding `CC(C)[C@H]1CC1(NC(=O)[C@H](Cc1ccccc1)NC(=O)[C@@H](C)NC(=O)[C@H](C)NC(=O)[C@@H](N)Cc1ccc(O)cc1)C(=O)N[C@@H](CCCN=C(N)N)C(=O)N[C@@H](Cc1ccccc1)C(N)=O` (single isomer, unassigned; form 2), the inhibition stood at 27%.

For `CC(C)C[C@H](NC(=O)[C@H](Cc1ccccc1)NC(=O)[C@@H](C)NC(=O)CNC(=O)[C@@H](N)Cc1ccc(O)cc1)C(=O)N[C@@H](CCCN=C(N)N)C(=O)N[C@@H](Cc1ccccc1)C(N)=O`, the inhibition is 81% and 75%.

Turning to `CC(C)[C@@H]1C[C@]1(NC(=O)[C@H](Cc1ccccc1)NC(=O)[C@@H](C)NC(=O)CNC(=O)[C@@H](N)Cc1ccc(O)cc1)C(=O)N[C@@H](CCCN=C(N)N)C(=O)N[C@@H](Cc1ccccc1)C(N)=O`, the inhibition is 29% [middle of 4 runs].

For the compound `CC(C)[C@H]1CC1(NC(=O)[C@H](Cc1ccccc1)NC(=O)CNC(=O)CNC(=O)[C@@H](N)Cc1ccc(O)cc1)C(=O)N[C@@H](CCCN=C(N)N)C(=O)N[C@@H](Cc1ccccc1)C(N)=O` (single isomer, unassigned), the inhibition worked out at 57%.

Take `CC(C)C[C@@H](NC(=O)[C@H](Cc1ccccc1)NC(=O)CNC(=O)[C@H](C)NC(=O)[C@@H](N)Cc1ccc(O)cc1)C(=O)N[C@@H](CCCN=C(N)N)C(=O)N[C@@H](Cc1ccccc1)C(N)=O`: the inhibition is 35% and 40%.

For the compound `CC(C)C[C@@H](NC(=O)[C@H](Cc1ccccc1)NC(=O)[C@@H](C)NC(=O)CNC(=O)[C@@H](N)Cc1ccc(O)cc1)C(=O)N[C@@H](CCCN=C(N)N)C(=O)N[C@@H](Cc1ccccc1)C(N)=O`, the inhibition was 28% and 48%.

For `CC(C)[C@H]1C[C@@]1(NC(=O)[C@H](Cc1ccccc1)NC(=O)[C@@H](C)NC(=O)[C@H](C)NC(=O)[C@@H](N)Cc1ccc(O)cc1)C(=O)N[C@@H](CCCN=C(N)N)C(=O)N[C@@H](Cc1ccccc1)C(N)=O`, the inhibition is 32% and 35%.

For `CC(C)C[C@H](NC(=O)[C@H](Cc1ccccc1)NC(=O)CNC(=O)CNC(=O)[C@@H](N)Cc1ccc(O)cc1)C(=O)N[C@@H](CCCN=C(N)N)C(=O)N[C@@H](Cc1ccccc1)C(N)=O`, the inhibition was 98% and 84%.

As for `CC(C)[C@@H]1C[C@]1(NC(=O)[C@H](Cc1ccccc1)NC(=O)[C@@H](C)NC(=O)[C@H](C)NC(=O)[C@@H](N)Cc1ccc(O)cc1)C(=O)N[C@@H](CCCN=C(N)N)C(=O)N[C@@H](Cc1ccccc1)C(N)=O`, the inhibition was 30% [middle of 4 runs].

`CC(C)C[C@@H](NC(=O)[C@H](Cc1ccccc1)NC(=O)[C@@H](C)NC(=O)[C@H](C)NC(=O)[C@@H](N)Cc1ccc(O)cc1)C(=O)N[C@@H](CCCN=C(N)N)C(=O)N[C@@H](Cc1ccccc1)C(N)=O`: the inhibition was 69% and 63%.

For `CC(C)[C@H]1CC1(NC(=O)[C@H](Cc1ccccc1)NC(=O)[C@@H](C)NC(=O)CNC(=O)[C@@H](N)Cc1ccc(O)cc1)C(=O)N[C@@H](CCCN=C(N)N)C(=O)N[C@@H](Cc1ccccc1)C(N)=O` (single isomer, unassigned), the inhibition worked out at 27%.

As to `CC(C)C[C@H](NC(=O)[C@H](Cc1ccccc1)NC(=O)[C@@H](C)NC(=O)[C@H](C)NC(=O)[C@@H](N)Cc1ccc(O)cc1)C(=O)N[C@@H](CCCN=C(N)N)C(=O)N[C@@H](Cc1ccccc1)C(N)=O`, the inhibition was 58% and 65%.

`CC(C)C[C@@H](NC(=O)[C@H](Cc1ccccc1)NC(=O)CNC(=O)CNC(=O)[C@@H](N)Cc1ccc(O)cc1)C(=O)N[C@@H](CCCN=C(N)N)C(=O)N[C@@H](Cc1ccccc1)C(N)=O`: the inhibition is 48% and 31%.

Regarding `CC(C)C[C@H](NC(=O)[C@H](Cc1ccccc1)NC(=O)CNC(=O)[C@H](C)NC(=O)[C@@H](N)Cc1ccc(O)cc1)C(=O)N[C@@H](CCCN=C(N)N)C(=O)N[C@@H](Cc1ccccc1)C(N)=O`, the inhibition is 60% and 76%.
